Source: patent publication US8188308B2 (Kyowa Hakko Bio Co., Ltd., priority 2006, dated 2012)
Several values for one entry are separate records, joined by “and”; a condition that tells them apart may be missing. Equal entries are not always repeated.

Assays:
[1] = glutathione crystals
Method: The crystals were observed and photographed using a VH-8000 digital microscope (Keyence Corporation). The width of approximately 300 crystals was measured and calculations performed.

[2] = glutathione crystals; volume median diameter
Method: (2) Average Particle Diameter
This is synonymous with volume median diameter, and it was measured using a laser diffraction and scattering particle diameter analyzer, the LMS-24 SK Laser Micron Sizer (Seishin Enterprise Co. Ltd.) and expressed as a cumulative 50% volume particle diameter.

[3] = 12 g crystals in 200 ml ionized water, 37° C., 120 rpm, time to complete dissolution
Method: 12 g of each of the crystals was put in to 200 ml of the ionized water maintained at a temperature of 37° C., and the time from injection to complete dissolution of the crystals when agitated at 120 rpm was measured.

SMILES: N[C@@H](CCC(=O)N[C@@H](CS)C(=O)NCC(=O)O)C(=O)O [commercial product C]
- Average width [1]: 3 μm

SMILES: N[C@@H](CCC(=O)N[C@@H](CS)C(=O)NCC(=O)O)C(=O)O [Example 1, gamma-L-glutamyl-L-cysteinyl glycine]
- Average width [1]: 25 μm
- Average particle diameter [2]: 52 μm

SMILES: N[C@@H](CCC(=O)N[C@@H](CS)C(=O)NCC(=O)O)C(=O)O [commercial product B]
- Average width [1]: 3 μm

SMILES: N[C@@H](CCC(=O)N[C@@H](CS)C(=O)NCC(=O)O)C(=O)O [Commercial product A]
- Average width [1]: 3 μm
- Average particle diameter [2]: 9 μm
- Dissolution time [3]: 124 s

SMILES: N[C@@H](CCC(=O)N[C@@H](CS)C(=O)NCC(=O)O)C(=O)O [Example 2, gamma-L-glutamyl-L-cysteinyl glycine]
- Average width [1]: 14 μm and 7 μm
